Source: patent US20240239786A1, “COMPOSITIONS AND METHODS FOR THE TREATMENT AND PREVENTION OF CANCER” (Yale University, priority 2021, published 2024)

Tests used:
PEO1 cells = experiment: Caspase 3/7 assay, PEO1; assay type: cell-based; conditions: 50 μM olaparib, 24 hr
Method: Cells were pre-treated with 30 μM DB4 for 1 hr and then treated with various concentrations of olaparib for 72 hr. Cell survival was determined by MTS cytotoxicity assay. Data are means±SD (N=3-4). […] EOB calculation was used to quantify the synergy of the combination of DB4 and various concentrations of olaparib in PEO1 or PEO4 cells as shown in FIG. 8A. EOB>0, synergism; EOB=0, additivity; EOB<0, antagonism. […] Cells were pre-treated with 30 μM DB4-F for 1 hr and then treated with various concentrations of olaparib for 72 hr. Cell survival was determined by MTS cytotoxicity assay. Data are means±SD (N=3-4). […] EOB calculation was used to quantify the synergy of the combination of DB4-F and various concentrations of olaparib in PEO1 or PEO4 cells as shown in FIG. 8B. […] Cell survival was determined by MTS cytotoxicity assay. […] Caspase 3/7 activity was expressed as RLU per μg/μl protein. […] Caspase 3/7 activity was expressed as RLU per μg/μl protein. […] Cells were treated and caspase 3/7 activity was measured as described in FIG. 8G and FIG. 8H.
Furthermore, the effects of DB4 on olaparib-induced apoptosis at 24 hr were evaluated. […]
The assay was performed as described previously (Lin Z P et al., 2018, PLOS One, 13:e0207399). […] Total protein concentration of cell lysates was determined as described above. Caspase 3/7 activity was expressed as luminescence units (RLU) per μg/μL protein for each sample.

RNR = experiment: dNTP measurement (HIV-1 RT-based dNTP assay) in PEO4 cells; assay type: cell-based; conditions: 50 μM DB4 or 1 μM triapine, 24 hr
Method: FIG. 2, comprising FIG. 2A through FIG. 2F, depicts representative results of follow-up assays of in silico hit compounds in PEO1 and PEO4 cells. FIG. 2A depicts representative results of cytotoxicity assays on selected 25 in silico hit compounds in PEO1 and PEO4 cells. Cells were plated for 24 hr and then treated with 50 μM compounds for 72 hr. For a positive control, cells were treated with 1 μM triapine for 72 hr. The percentage of cell survival was determined by the MTS cytotoxicity assay. […] Cells were treated with 50 μM compounds or 1 μM triapine for 24 hr. During the last hour, cells were pulse-labeled with EdU, stained with the Click-iT EdU Alexa Fluor 488 Assay Kit, counterstained with 7-AAD, and subsequently analyzed by flow cytometry. EdU-positive cells were gated to determine the percentage of the S phase cell population. […] During the last hour, cells were pulse-labeled with EdU, stained with the Click-iT EdU Alexa Fluor 488 Assay Kit, counterstained with 7-AAD, and subsequently analyzed by flow cytometry. […] The percentages of DNA synthesis in cells treated with each of 10 compounds and triapine relative to the DMSO-treated control is calculated and shown. […] Cells were extracted with 65% methanol for determination of each of dNTPs expressed as pmole/10^6 cells. […] The percentage of cell survival was determined by the MTS cytotoxicity assay. […]

**Q.** For `O=C(c1cc(Cc2n[nH]c(=O)c3ccccc23)ccc1F)N1CCN(C(=O)C2CC2)CC1` [olaparib, reference compound], which “caspase 3/7 activity, olaparib alone” value (PEO1 cells) is on record?
**A.** pronounced increase in caspase 3/7 activity

**Q.** Which “levels of dNTPs” value (RNR) does the source give for `NC(=S)NN=Cc1ncccc1N` [triapine, 3-aminopyridine-2-carboxaldehyde-thiosemicarbazone, reference compound] here?
**A.** significant and pronounced decreases in the levels of dATP and dGTP while causing a marked increase in dCTP and somewhat elevated dTTP

**Q.** What does the source list for `C=CCn1c(SCc2cccc(Cl)c2)nnc1C1CCN(Cc2nc3ccccc3s2)CC1` [DB4, 2-[(4-{4-allyl-5-[(3-chlorobenzyl)thio]-4H-1,2,4-triazol-3-yl}-1-piperidinyl)methyl]-1,3-benzothiazole]?
**A.** levels of dNTPs (RNR): significant decreases in the levels of dATP, dGTP, and dTTP; effect on olaparib-induced caspase 3/7 activity (PEO1 cells): failed to enhance
